Here are results for 1 compound from publication PMC5817118 (Theranostics, 2018).

“Also recorded” adds a separate entry of the source. Where a SMILES comes first, the peptide text is derived from it. Bridges are numbered along the chain shown (N, C = ends). [ ]: non-standard residue; d: D form. AEEA = NCCOCCOCC(=O)O

In one series the target is T1, fibrin clot (Homo sapiens, UniProt P02671+P02675+P02679).
T1 sequence (P02671 20-644 isoform P02671-2 limits assumed): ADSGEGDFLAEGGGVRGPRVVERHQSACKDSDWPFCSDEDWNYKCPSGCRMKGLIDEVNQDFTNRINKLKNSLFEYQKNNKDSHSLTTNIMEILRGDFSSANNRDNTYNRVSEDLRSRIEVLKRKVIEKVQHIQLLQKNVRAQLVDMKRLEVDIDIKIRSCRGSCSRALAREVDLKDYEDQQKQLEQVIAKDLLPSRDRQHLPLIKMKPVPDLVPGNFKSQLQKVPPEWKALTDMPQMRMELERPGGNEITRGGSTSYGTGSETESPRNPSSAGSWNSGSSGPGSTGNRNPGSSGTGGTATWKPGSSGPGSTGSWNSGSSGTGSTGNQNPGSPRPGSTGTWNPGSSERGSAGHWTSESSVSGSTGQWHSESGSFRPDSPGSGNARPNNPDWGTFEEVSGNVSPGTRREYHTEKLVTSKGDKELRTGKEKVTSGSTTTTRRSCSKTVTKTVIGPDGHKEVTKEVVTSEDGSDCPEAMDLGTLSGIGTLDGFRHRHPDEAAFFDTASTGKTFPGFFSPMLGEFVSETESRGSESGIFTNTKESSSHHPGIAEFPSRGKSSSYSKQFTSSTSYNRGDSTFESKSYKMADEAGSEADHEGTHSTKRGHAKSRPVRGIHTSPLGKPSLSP
T1 sequence (P02675 45-491 limits assumed): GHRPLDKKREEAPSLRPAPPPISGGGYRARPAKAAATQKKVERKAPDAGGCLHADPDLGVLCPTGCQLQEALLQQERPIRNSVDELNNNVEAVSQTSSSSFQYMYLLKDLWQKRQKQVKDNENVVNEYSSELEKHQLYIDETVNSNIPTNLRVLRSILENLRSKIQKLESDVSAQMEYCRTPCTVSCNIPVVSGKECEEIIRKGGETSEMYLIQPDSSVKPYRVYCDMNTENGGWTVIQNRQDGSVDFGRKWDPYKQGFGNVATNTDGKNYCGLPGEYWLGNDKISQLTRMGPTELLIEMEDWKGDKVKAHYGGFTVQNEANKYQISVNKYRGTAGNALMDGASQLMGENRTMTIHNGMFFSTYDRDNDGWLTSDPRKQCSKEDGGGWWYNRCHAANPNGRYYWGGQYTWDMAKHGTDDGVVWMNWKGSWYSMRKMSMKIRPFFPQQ
T1 sequence (P02679 27-437 isoform P02679-2 limits assumed): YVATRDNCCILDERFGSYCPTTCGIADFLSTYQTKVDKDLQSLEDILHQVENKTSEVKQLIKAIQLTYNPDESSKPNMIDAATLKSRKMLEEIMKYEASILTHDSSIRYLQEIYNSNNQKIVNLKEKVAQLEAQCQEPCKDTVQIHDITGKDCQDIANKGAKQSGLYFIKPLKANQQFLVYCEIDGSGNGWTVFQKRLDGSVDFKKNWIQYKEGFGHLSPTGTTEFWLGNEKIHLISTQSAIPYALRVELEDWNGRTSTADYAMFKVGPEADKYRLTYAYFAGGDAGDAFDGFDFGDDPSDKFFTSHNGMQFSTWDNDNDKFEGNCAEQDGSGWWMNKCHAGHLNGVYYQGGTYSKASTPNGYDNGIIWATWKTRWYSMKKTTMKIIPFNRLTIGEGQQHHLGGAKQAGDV
Briefly: Plasma matrix interference on probe binding to fibrin clots. Particulars: 20 µCi probe, 0.1 M PBS diluted 50% with fresh frozen human plasma, 0.5 mL, 37 °C, 30 min, triplicate.

The nature of series [1]: Organ biodistribution in mice at 180 min. It is filed as in vivo. The following applies: 180 min after tail vein injection, n=3/treatment.

With `CC[C@H](C)[C@H](NC(=O)[C@H](Cc1c[nH]c2ccccc12)NC(=O)[C@@H]1CSSC[C@H](NC(=O)[C@H](CCC(=O)O)NC(=O)[C@H](Cc2c[nH]c3ccccc23)NC(=O)[C@H](CCC(N)=O)NC(=O)COCCOCCNC(=O)[C@H](CCC(=O)O)NC(=O)[C@H](Cc2c[nH]cn2)NC(=O)[C@@H](N)Cc2c[nH]cn2)C(=O)N2CCC[C@H]2C(=O)N[C@@H](Cc2ccc(O)cc2)C(=O)NCC(=O)N[C@@H](CC(C)C)C(=O)N1)C(=O)N[C@@H](CCC(N)=O)C(=O)O` [^99mTc-F1A, metal not drawn] (H-HHE[AEEA]QWECPYGLCWIQ-OH; disulfide 8-13), the “binding to fibrin clots in the presence of human plasma compared with PBS alone” value at fibrin clot is reported as “interfered; also recorded: dramatically reduced; also recorded: severely compromised”. Also, the “organ accumulation (lung, liver, spleen)” value in series [1] is given as “negligible liver or spleen biodistribution; also recorded: neither probe accumulating substantially in the lung, liver or spleen”.
